Assay: Photosensitizing ability was evaluated by the degradation of DPBF by singlet oxygen in DMSO solution at 27 degree Centigrade

Row | SMILES | k obs
1 | OC[C@@H]1O[C@H](Oc2cc(O[C@H]3O[C@@H](CO)[C@H](O)[C@@H](O)[C@@H]3O)cc(-c3c4nc(c(-c5cc(O[C@@H]6O[C@H](CO)[C@@H](O)[C@H](O)[C@H]6O)cc(O[C@@H]6O[C@H](CO)[C@@H](O)[C@H](O)[C@H]6O)c5)c5nc(c(-c6cc(O[C@@H]7O[C@H](CO)[C@@H](O)[C@H](O)[C@H]7O)cc(O[C@@H]7O[C@H](CO)[C@@H](O)[C@H](O)[C@H]7O)c6)c6ccc([nH]6)c(-c6cc(O[C@@H]7O[C@H](CO)[C@@H](O)[C@H](O)[C@H]7O)cc(O[C@@H]7O[C@H](CO)[C@@H](O)[C@H](O)[C@H]7O)c6)c6ccc3[nH]6)CC5)C=C4)c2)[C@@H](O)[C@H](O)[C@H]1O | 0.011 s⁻¹
2 | OC[C@@H]1O[C@H](Oc2ccc(-c3c4nc(c(-c5ccc(O[C@@H]6O[C@H](CO)[C@@H](O)[C@H](O)[C@H]6O)cc5)c5nc(c(-c6ccc(O[C@@H]7O[C@H](CO)[C@@H](O)[C@H](O)[C@H]7O)cc6)c6ccc([nH]6)c(-c6ccc(O[C@H]7O[C@@H](CO)[C@H](O)[C@@H](O)[C@@H]7O)cc6)c6ccc3[nH]6)CC5)C=C4)cc2)[C@@H](O)[C@H](O)[C@H]1O | 0.0094 s⁻¹
3 | OC[C@@H]1O[C@H](Oc2ccc(-c3c4nc(c(-c5ccc(O[C@@H]6O[C@H](CO)[C@H](O)[C@H](O)[C@H]6O)cc5)c5nc(c(-c6ccc(O[C@@H]7O[C@H](CO)[C@H](O)[C@H](O)[C@H]7O)cc6)c6ccc([nH]6)c(-c6ccc(O[C@H]7O[C@@H](CO)[C@@H](O)[C@@H](O)[C@@H]7O)cc6)c6ccc3[nH]6)CC5)C=C4)cc2)[C@@H](O)[C@H](O)[C@@H]1O | 0.0062 s⁻¹
4 | CC(=O)OC[C@@H]1O[C@H](Oc2cc(O[C@@H]3O[C@H](COC(C)=O)[C@@H](OC(C)=O)[C@H](OC(C)=O)[C@H]3OC(C)=O)cc(-c3c4nc(c(-c5cc(O[C@H]6O[C@@H](COC(C)=O)[C@H](OC(C)=O)[C@@H](OC(C)=O)[C@@H]6OC(C)=O)cc(O[C@H]6O[C@@H](COC(C)=O)[C@H](OC(C)=O)[C@@H](OC(C)=O)[C@@H]6OC(C)=O)c5)c5ccc([nH]5)c(-c5cc(O[C@H]6O[C@@H](COC(C)=O)[C@H](OC(C)=O)[C@@H](OC(C)=O)[C@@H]6OC(C)=O)cc(O[C@@H]6O[C@H](COC(C)=O)[C@@H](OC(C)=O)[C@H](OC(C)=O)[C@H]6OC(C)=O)c5)c5ccc([nH]5)c(-c5cc(O[C@@H]6O[C@H](COC(C)=O)[C@@H](OC(C)=O)[C@H](OC(C)=O)[C@H]6OC(C)=O)cc(O[C@@H]6O[C@H](COC(C)=O)[C@@H](OC(C)=O)[C@H](OC(C)=O)[C@H]6OC(C)=O)c5)c5nc3CC5)C=C4)c2)[C@@H](OC(C)=O)[C@H](OC(C)=O)[C@H]1OC(C)=O | 0.011 s⁻¹
5 | CC(=O)OC[C@@H]1O[C@H](Oc2ccc(-c3c4nc(c(-c5ccc(O[C@@H]6O[C@H](COC(C)=O)[C@@H](OC(C)=O)[C@H](OC(C)=O)[C@H]6OC(C)=O)cc5)c5nc(c(-c6ccc(O[C@@H]7O[C@H](COC(C)=O)[C@@H](OC(C)=O)[C@H](OC(C)=O)[C@H]7OC(C)=O)cc6)c6ccc([nH]6)c(-c6ccc(O[C@H]7O[C@@H](COC(C)=O)[C@H](OC(C)=O)[C@@H](OC(C)=O)[C@@H]7OC(C)=O)cc6)c6ccc3[nH]6)CC5)C=C4)cc2)[C@@H](OC(C)=O)[C@H](OC(C)=O)[C@H]1OC(C)=O | 0.012 s⁻¹
6 | CC(=O)OC[C@@H]1O[C@H](Oc2ccc(-c3c4nc(c(-c5ccc(O[C@@H]6O[C@H](COC(C)=O)[C@H](OC(C)=O)[C@H](OC(C)=O)[C@H]6OC(C)=O)cc5)c5nc(c(-c6ccc(O[C@@H]7O[C@H](COC(C)=O)[C@H](OC(C)=O)[C@H](OC(C)=O)[C@H]7OC(C)=O)cc6)c6ccc([nH]6)c(-c6ccc(O[C@H]7O[C@@H](COC(C)=O)[C@@H](OC(C)=O)[C@@H](OC(C)=O)[C@@H]7OC(C)=O)cc6)c6ccc3[nH]6)CC5)C=C4)cc2)[C@@H](OC(C)=O)[C@H](OC(C)=O)[C@@H]1OC(C)=O | 0.0068 s⁻¹
